The source made the active and inactive calls.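 Rule for the calls: active = compounds giving half or more protection of infected cells from virus-caused growth loss, again on retest; inactive = the rest.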 Where a SMILES comes first, the peptide text is derived from it. The star is where a group is joined. Boc = CC(C)(C)OC(=O)*; OBn = c1ccc(CO*)cc1 Some results are limits rather than exact numbers.

In general, EC50 refers to the concentration giving half of the maximal effect. The IC50 is the concentration at which inhibition is half-maximal. A high value points to lower potency.

The experiment concerns CEM cells HIV-1 protection, formazan growth assay. As to the kind of experiment: NCI AIDS Antiviral Assay. Conditions: for IC50: measured here: growth of uninfected CEM cells. The method, boiled down: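 Soluble formazan readout of cell growth; CEM cells ± HIV-1; 5 drug concs. ≥50% protection → retest; ≥50% again = moderately active; reproducible 100% = confirmed active.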

On to `CCCCCCCCCCCCCCCCP(=O)(O)OCC(N)C(=O)O` (centres undefined), for which the EC50 is over 200 µM and the IC50 stood at 95.5 µM.

As to `Cc1c(Cc2ccccc2)n(C(C)OCCN(OC(=O)Oc2ccccc2)C(=O)Oc2ccccc2)c(=O)[nH]c1=O` (centres undefined), the EC50 was over 200 µM and the IC50 was determined as 53.7 µM. The like results for `NNC(=O)/C(=C/c1ccc(Cl)cc1Cl)NC(=O)c1ccccc1` were, in that order, over 135 µM and 110 µM.

On to `O=C1CCC2CCC(=O)N12`, for which the EC50 was over 1780 µM and the half-maximal inhibitory concentration (IC50) is over 1780 µM.

Turning to `C[N+](C)([O-])CCNc1c2ccccc2nc2cccc([N+](=O)[O-])c12`, the EC50 is over 20 µM and the IC50 is 0.355 µM. In the case of `COc1ccc(C[C@@H]2Cc3cc(OC)c(OC)cc3CN2C)cc1`, the EC50 is over 692 µM and the half-maximal inhibitory concentration (IC50) stood at 45.7 µM. The like results for `CCOC(=O)/C(O)=C/c1nc2ccccc2nc1C` were, in that order, over 46.8 µM and over 46.8 µM. Regarding `O=c1[nH]c(-c2ccccc2)nc2c1OCN(Cc1ccccc1)C2`, the EC50 is over 115 µM and the 50% inhibitory concentration (IC50) came out at 28.8 µM. As for `Cc1nc2c(O)cc(Br)c(O)c2nc1C`, the outcome was inactive.

On to `[N-]=[N+]=NI1OC(=O)c2ccccc21`, for which the half-maximal effective concentration (EC50) was over 200 µM and the IC50 was determined as 55 µM. `CC(C)(C)c1cc2c(c(C(C)(C)C)c1O)CC(=O)O2`: the EC50 was over 200 µM and the IC50 worked out at 41.7 µM. As for `Cc1ccc(S(=O)(=O)N2CCCSCCN(S(=O)(=O)c3ccc(C)cc3)CCCSCC2)cc1`, the EC50 is over 34.7 µM and the IC50 was over 34.7 µM. As to `CC1=C2C(=O)c3ccccc3C2=C(C)S(=O)(=O)O1`, the EC50 is over 955 µM and the half-maximal inhibitory concentration (IC50) came out at 832 µM.

As for `C(=N\NC1=NCCCN1)/c1ccc2ccccc2c1`, the EC50 was over 200 µM and the concentration for half-maximal inhibition (IC50) was determined as 8.32 µM.

As for `CC(=O)Nc1ccc(C(=O)NN2C(=O)C(Cl)C2c2ccc(Cl)cc2)cc1` (centres undefined), the EC50 is over 200 µM and the 50% inhibitory concentration (IC50) is over 200 µM. In the case of `c1ccc(N2CC3CSc4ccc5ccccc5c4C3=N2)cc1` (centres undefined), the EC50 is over 200 µM and the IC50 was over 200 µM. Regarding `COc1ccc(/C=C2\NC(=S)N(CN3CCCCC3)C2=O)cc1`, the EC50 is over 200 µM and the half-inhibitory concentration (IC50) was 30.9 µM. Take `CCOC(=O)C(=O)Nc1cccc(Cl)c1C`: the EC50 was over 741 µM and the half-inhibitory concentration (IC50) is over 741 µM.

`Cc1ccc(S(=O)(=O)N/N=C2/C3C(CC2(C)C)C2(C)CCCC3(C)C2O)cc1` (centres undefined): the EC50 was over 200 µM and the IC50 was over 200 µM. As to `O/N=C1/C(=C/c2ccc(OCc3ccccc3)cc2)CCCC1C(NO)c1ccc(OCc2ccccc2)cc1` (centres undefined), the EC50 was over 7.08 µM and the IC50 was over 7.08 µM. With `O=c1c2cccc3cccc(c4oc5c6cccc7cccc(c(=O)c5c14)c76)c32`, the outcome was inactive. For the compound `COc1cc2[nH]ncc(=S)c2cc1OC`, the EC50 is 61.7 µM and the IC50 turned out to be 219 µM. The like results for `CCC(/C=C/c1ccccc1)=N\N=C(\C=C\c1ccccc1)CC` were, in that order, over 41.7 µM and 2.51 µM. `Cc1cn(C2OCC(CO)C2F)c(=O)[nH]c1=O` (centres undefined): the EC50 is over 200 µM and the 50% inhibitory concentration (IC50) was over 200 µM. Consider `CCOC(=O)/C(C#N)=C/c1ccc(C)cc1`, for which the EC50 is over 120 µM and the half-maximal inhibitory concentration (IC50) is over 120 µM.

On to `CN(N=O)C(=O)NC(CCCCNC(=O)OCc1ccccc1)C(=O)OCc1ccccc1` (centres undefined), for which the EC50 is over 21.9 µM and the IC50 was over 21.9 µM. With `CN(Nc1cc(=O)[nH]c(=O)[nH]1)c1ccccc1`, the EC50 is over 200 µM and the IC50 was over 200 µM. Take `COC(Cc1ccccc1)NC(=O)[C@@]12CCCC[C@@H]1C=Cc1ccccc12` (some centres undefined): the EC50 was over 55 µM and the IC50 turned out to be 22.9 µM.

For the compound `CN(C)CCSc1cccc(-c2cc(-c3cccs3)nc(SCCN(C)C)n2)c1`, the EC50 was over 282 µM and the half-inhibitory concentration (IC50) stood at 2.24 µM. For the compound `CCOP(=O)(OCC)C(Cc1cn(S(=O)(=O)c2ccc(C)cc2)cn1)C(=O)O` (centres undefined), the EC50 is over 200 µM and the 50% inhibitory concentration (IC50) was over 200 µM. As to `O=C(O)CSc1nnc(COc2ccccc2)n1-c1ccccc1`, the EC50 is over 741 µM and the half-maximal inhibitory concentration (IC50) amounted to 407 µM. Take `O=C1NC2(CCN(CCc3ccccc3)CC2)Oc2ccccc21`: the EC50 is over 200 µM and the IC50 came to 191 µM.

For `S=C1NC(c2cccs2)N2C(=S)NC(c3cccs3)N12` (centres undefined), the EC50 was over 200 µM and the IC50 was over 200 µM. Take `CC1=C2CCC(O)CC2(C)C(O)C1C` (centres undefined): the outcome was inactive. The same measure, in the same setting: in the case of `C=C1C2CC[C@@]3(CC[C@@H]4[C@@]5(C)CCC[C@@]4(CN4CCO[C@H]45)[C@@H]3C2)[C@@H]1O` it was “inactive”.

Consider `Cc1cn(C2CC=C(CO)CC2)c(=O)[nH]c1=O` (centres undefined), for which the EC50 was over 1050 µM and the concentration for half-maximal inhibition (IC50) was over 1050 µM. Regarding `On1ccc(=S)c2ccccc21`, the EC50 is over 200 µM and the IC50 is 36.3 µM.

Regarding `COC(=O)C(Cc1ccc2c(c1)OCO2)(NC(=O)c1ccccc1)P(=O)(OC)OC` (centres undefined), the EC50 is over 575 µM and the half-maximal inhibitory concentration (IC50) was over 575 µM.

In the case of `CC(C)CC(NC(=O)C(Cc1ccccc1)NC(=O)C(Cc1ccccc1)NC(=O)OC(C)(C)C)C(=O)OCc1ccccc1` (stereo not drawn) (Boc-Phe-Phe-Leu-OBn; configuration not given here), the EC50 was over 200 µM and the concentration for half-maximal inhibition (IC50) is over 200 µM. As for `CC(C)(C)CP(=S)(CCP(CCP(=S)(CC(C)(C)C)CC(C)(C)C)CCP(=S)(CC(C)(C)C)CC(C)(C)C)CC(C)(C)C`, the EC50 is over 12.3 µM and the IC50 is over 12.3 µM. `CC1=C(C#N)C2C(=C(N)Oc3ccccc32)C(N)=N1` (centres undefined): the EC50 was over 200 µM and the half-maximal inhibitory concentration (IC50) was 27.5 µM. In the case of `N#CC1=C(N)C(C#N)(C#N)C2(CCCC2)C2CCC=C12` (centres undefined), the result was inactive. `O=C(O)C1CCC(c2ccc(Cl)cc2Cl)=N1` (centres undefined): the EC50 is over 200 µM and the half-inhibitory concentration (IC50) is over 200 µM.

As to `O=C1NC2(O)c3ccccc3C(=O)C2(O)N1c1ccccc1` (centres undefined), the EC50 is over 851 µM and the IC50 came out at 692 µM. As to `CCN1CCC(O)(/C=C/c2ccccc2)C(C(=O)/C=C/c2ccccc2)C1` (centres undefined), the result was inactive. Consider `O=C1c2ccccc2C(=O)C1(Br)c1ccccc1`, for which the EC50 was over 200 µM and the 50% inhibitory concentration (IC50) is over 200 µM. Take `COc1ccccc1CO[C@]1(C)CNCC(C)(C)NC(=O)[C@@](C)(OCc2ccccc2OC)CNCC(C)(C)NC1=O`: the EC50 is over 200 µM and the IC50 was over 200 µM.

`O=Cc1cn(C(=O)c2ccccc2)c2ccccc12`: the result was inactive. As for `COc1ccc(Nc2nc(NNC(=O)Cc3ccccc3)nc(NNC(=O)c3ccncc3)n2)cc1`, the concentration for a half-maximal effect (EC50) was over 178 µM and the IC50 stood at 174 µM. The corresponding values for `C1CSCCSS[C@@H]2CCCCC2SC1` (some centres undefined) are over 33.9 µM and over 33.9 µM. With `CC(C)=CCc1c2c(c3occ(-c4ccc(O)c(O)c4)c(=O)c3c1O)C=CC(C)(C)O2`, the concentration for a half-maximal effect (EC50) was over 200 µM and the IC50 worked out at 39.8 µM.

In the case of `CCOc1ccc(C(C)c2cc3c(cc2OC)OCO3)cc1` (centres undefined), the EC50 was over 33.1 µM and the half-maximal inhibitory concentration (IC50) was 0.468 µM. `CCCCc1c2c([n+]([O-])c3c1CCCC3)CCCC2`: the EC50 was over 138 µM and the IC50 is 22.4 µM.

The values above are taken from PubChem BioAssay AID179 (DTP/NCI, 2004).
